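These data come from cells grown in 96-well plates and exposed to compound for 48 hours at five concentrations. GI50 is the concentration that inhibits growth by half.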 Calls of active or inactive are those of the source. Rule as the data show it: active = GI50 up to about 1.1 µM and inactive = higher.
Experiments:
Assay in all cases: NCI-60 cell line screen, 48 h
TK-10 = system: TK-10
CCRF-CEM = system: CCRF-CEM
NCI-H460 = system: NCI-H460
COLO 205 = system: COLO 205
MOLT-4 = system: MOLT-4
IGROV-1 = system: IGROV-1
NCI-H522 = system: NCI-H522
HCT-116 = system: HCT-116
SNB-19 = system: SNB-19
UO-31 = system: UO-31
M19-MEL = system: M19-MEL
SF-295 = system: SF-295
UACC-62 = system: UACC-62
RXF 393 = system: RXF 393
MCF7 = system: MCF7
CAKI-1 = system: CAKI-1
PC-3 = system: PC-3
SK-MEL-5 = system: SK-MEL-5
Hs-578T = system: Hs-578T
T47D = system: T47D

SMILES | GI50 (TK-10) | GI50 (CCRF-CEM) | GI50 (NCI-H460) | GI50 (COLO 205) | GI50 (MOLT-4) | GI50 (IGROV-1) | GI50 (NCI-H522) | GI50 (HCT-116) | GI50 (SNB-19) | GI50 (UO-31) | GI50 (M19-MEL) | GI50 (SF-295) | GI50 (UACC-62) | GI50 (RXF 393) | GI50 (MCF7) | GI50 (CAKI-1) | GI50 (PC-3) | GI50 (SK-MEL-5) | GI50 (Hs-578T) | GI50 (T47D)
CN(C)CCCNc1ccc2ncn3c4ccccc4c(=O)c1c23 | 14.8 µM (inactive) | 4.39 µM (inactive) | 3.43 µM (inactive) | 2.49 µM (inactive) | 2.91 µM (inactive) | 7.66 µM (inactive) | 6.17 µM (inactive) | 3.48 µM (inactive) | 20.3 µM (inactive) | 9.27 µM (inactive) | 12.1 µM (inactive) | 6.3 µM (inactive) | 12.8 µM (inactive) | – | – | – | – | – | – | –
O=C1Nc2ccc(S(=O)(=O)N(CCO)CCO)cc2/C1=C1/Nc2ccccc2C1=O | > 100 µM (inactive) | > 100 µM (inactive) | > 100 µM (inactive) | 8.05 µM (inactive) | 62.4 µM (inactive) | 2.5 µM (inactive) | > 100 µM (inactive) | 51.6 µM (inactive) | > 100 µM (inactive) | > 100 µM (inactive) | – | > 100 µM (inactive) | > 100 µM (inactive) | 1.56 µM (inactive) | 0.615 µM (active) | > 100 µM (inactive) | 30.3 µM (inactive) | > 100 µM (inactive) | > 100 µM (inactive) | 0.679 µM (active)
CC1OC(OC2C(OC(=O)[C@@H]3CC(C)(C)C[C@H]4C5=CC[C@@H]6[C@@]7(C)C[C@H](O)[C@H](OC8OC(CO)C(O)C(O)C8O)[C@@](C)(CO)[C@@H]7[C@H](O)C[C@@]6(C)[C@]5(C)CC[C@@]34C)OCC(O)C2O)C(O)C(O)C1O (stereo not given in full) | > 7.5 µM (inactive) | > 7.5 µM (inactive) | > 7.5 µM (inactive) | > 7.5 µM (inactive) | > 7.5 µM (inactive) | > 7.5 µM (inactive) | > 7.5 µM (inactive) | > 7.5 µM (inactive) | > 7.5 µM (inactive) | > 7.5 µM (inactive) | – | > 7.5 µM (inactive) | > 7.5 µM (inactive) | > 7.5 µM (inactive) | > 7.5 µM (inactive) | > 7.5 µM (inactive) | > 7.5 µM (inactive) | > 7.5 µM (inactive) | > 7.5 µM (inactive) | > 7.5 µM (inactive)
CCOC(=O)/C=C/[C@H](O[Si](CC)(CC)CC)C(C)(C)C | > 100 µM (inactive) | 22.4 µM (inactive) | > 100 µM (inactive) | 80.5 µM (inactive) | 77.1 µM (inactive) | > 100 µM (inactive) | 29.1 µM (inactive) | 51.2 µM (inactive) | 36.3 µM (inactive) | > 100 µM (inactive) | – | 42.4 µM (inactive) | 90.2 µM (inactive) | 47.1 µM (inactive) | 25.8 µM (inactive) | > 100 µM (inactive) | 78.3 µM (inactive) | 45.3 µM (inactive) | > 100 µM (inactive) | 67.1 µM (inactive)
C[C@]12CCC3c4ccc(O)cc4CC[C@H]3C1CC(=O)N(N)C2=O (stereo not given in full) | > 100 µM (inactive) | > 100 µM (inactive) | > 100 µM (inactive) | > 100 µM (inactive) | > 100 µM (inactive) | > 100 µM (inactive) | > 100 µM (inactive) | > 100 µM (inactive) | > 100 µM (inactive) | > 100 µM (inactive) | – | > 100 µM (inactive) | > 100 µM (inactive) | > 100 µM (inactive) | > 100 µM (inactive) | > 100 µM (inactive) | > 100 µM (inactive) | > 100 µM (inactive) | > 100 µM (inactive) | > 100 µM (inactive)
CC(C)(C)[C@H]1CCC2(OCCO2)[C@](O)(CCCO)C1 | > 100 µM (inactive) | > 100 µM (inactive) | > 100 µM (inactive) | > 100 µM (inactive) | > 100 µM (inactive) | > 100 µM (inactive) | > 100 µM (inactive) | > 100 µM (inactive) | > 100 µM (inactive) | > 100 µM (inactive) | – | > 100 µM (inactive) | > 100 µM (inactive) | > 100 µM (inactive) | > 100 µM (inactive) | > 100 µM (inactive) | > 100 µM (inactive) | > 100 µM (inactive) | > 100 µM (inactive) | > 100 µM (inactive)
O=C1OC(=O)C2C1C(c1ccccc1[N+](=O)[O-])C=C(c1ccco1)N2c1ccncc1 (stereo not given) | 3.82 µM (inactive) | 2.29 µM (inactive) | 12.1 µM (inactive) | 7.98 µM (inactive) | 1.88 µM (inactive) | 2.09 µM (inactive) | 2.28 µM (inactive) | 1.83 µM (inactive) | 8.39 µM (inactive) | 6.01 µM (inactive) | – | 10.3 µM (inactive) | 16.9 µM (inactive) | 4.67 µM (inactive) | 2.1 µM (inactive) | 16 µM (inactive) | 13.3 µM (inactive) | 4.09 µM (inactive) | > 25.9 µM (inactive) | 4.97 µM (inactive)
COC(=O)C1Cc2c(n(C)c3ccccc23)C(c2ccccc2)N1 (stereo not given) | > 100 µM (inactive) | 52.1 µM (inactive) | 60.5 µM (inactive) | 23 µM (inactive) | 29.6 µM (inactive) | 45.8 µM (inactive) | 16.9 µM (inactive) | 34.4 µM (inactive) | > 100 µM (inactive) | > 100 µM (inactive) | 45.6 µM (inactive) | > 100 µM (inactive) | 62.8 µM (inactive) | – | – | > 100 µM (inactive) | – | 21.1 µM (inactive) | – | –
CCCNc1ncnc2c1cnn2C | > 100 µM (inactive) | > 100 µM (inactive) | > 100 µM (inactive) | > 100 µM (inactive) | > 100 µM (inactive) | > 100 µM (inactive) | > 100 µM (inactive) | > 100 µM (inactive) | > 100 µM (inactive) | – | > 100 µM (inactive) | > 100 µM (inactive) | > 100 µM (inactive) | – | – | > 100 µM (inactive) | – | > 100 µM (inactive) | – | –
Clc1nc(Cl)c(Cl)c(Cl)n1 | 20.9 µM (inactive) | 5.15 µM (inactive) | 21.6 µM (inactive) | 8.57 µM (inactive) | 6.21 µM (inactive) | 19.9 µM (inactive) | 15.9 µM (inactive) | 18.9 µM (inactive) | 22.3 µM (inactive) | 24.5 µM (inactive) | – | 19.3 µM (inactive) | 18.5 µM (inactive) | 18.3 µM (inactive) | 15.8 µM (inactive) | 17.8 µM (inactive) | 16.6 µM (inactive) | 17.6 µM (inactive) | 20.9 µM (inactive) | 18.2 µM (inactive)
Nc1c(Cl)c([N+](=O)[O-])cc2c1OCCCCO2 | > 100 µM (inactive) | 79.6 µM (inactive) | > 100 µM (inactive) | > 100 µM (inactive) | > 100 µM (inactive) | 40.5 µM (inactive) | 2.32 µM (inactive) | > 100 µM (inactive) | > 10 µM (inactive) | > 100 µM (inactive) | – | > 100 µM (inactive) | 95.5 µM (inactive) | > 100 µM (inactive) | > 100 µM (inactive) | 56.4 µM (inactive) | > 100 µM (inactive) | 44.9 µM (inactive) | > 100 µM (inactive) | > 100 µM (inactive)
CC(NC(NC(C)C12CC3CC(CC(C3)C1)C2)=C(C(Cl)=C(Cl)Cl)[N+](=O)[O-])C12CC3CC(CC(C3)C1)C2 (stereo not given) | 33.3 µM (inactive) | 0.923 µM (active) | 4.36 µM (inactive) | 8.51 µM (inactive) | 19.5 µM (inactive) | 8.02 µM (inactive) | 7.11 µM (inactive) | 9.04 µM (inactive) | 30.2 µM (inactive) | 31.9 µM (inactive) | – | 24.9 µM (inactive) | 30 µM (inactive) | 13 µM (inactive) | 8.36 µM (inactive) | 16.9 µM (inactive) | 8.3 µM (inactive) | 13.2 µM (inactive) | 3.83 µM (inactive) | 20.4 µM (inactive)
c1ccc2c(c1)CCN2CCc1c[nH]c2ccccc12 | > 10 µM (inactive) | > 10 µM (inactive) | > 10 µM (inactive) | > 10 µM (inactive) | > 10 µM (inactive) | > 10 µM (inactive) | > 10 µM (inactive) | > 10 µM (inactive) | > 10 µM (inactive) | > 10 µM (inactive) | – | > 10 µM (inactive) | > 10 µM (inactive) | > 10 µM (inactive) | > 10 µM (inactive) | > 10 µM (inactive) | > 10 µM (inactive) | > 10 µM (inactive) | > 10 µM (inactive) | > 10 µM (inactive)
CC(=O)O[C@H]1C(=O)[C@@]2(C)[C@H]([C@H](OC(=O)c3ccccc3)[C@]3(O)C[C@H](OC(=O)[C@H](O)[C@@H](NC(=O)CC(C)(C)C)c4ccccc4)C(C)=C1C3(C)C)C1(OC(C)=O)CO[C@@H]1C[C@@H]2O (stereo not given in full) | 0.047 µM (active) | 0.00171 µM (active) | 0.00235 µM (active) | 0.0014 µM (active) | 0.00296 µM (active) | 0.00154 µM (active) | 0.00143 µM (active) | < 0.001 µM (active) | 0.122 µM (active) | 3.96 µM (inactive) | – | 0.0208 µM (active) | 0.00158 µM (active) | 0.00796 µM (active) | < 0.001 µM (active) | 0.128 µM (active) | 0.00183 µM (active) | 0.00213 µM (active) | < 0.001 µM (active) | 0.00908 µM (active)
COc1cc2c(cc1OC)-c1cc3ccc(OC)c(OC)c3c[n+]1CC2 [PALMATINE CHLORIDE] | > 100 µM (inactive) | > 100 µM (inactive) | > 100 µM (inactive) | 24.4 µM (inactive) | > 100 µM (inactive) | > 100 µM (inactive) | > 100 µM (inactive) | > 100 µM (inactive) | 15.5 µM (inactive) | > 100 µM (inactive) | – | > 100 µM (inactive) | > 100 µM (inactive) | > 100 µM (inactive) | > 100 µM (inactive) | > 100 µM (inactive) | > 100 µM (inactive) | 34.8 µM (inactive) | > 100 µM (inactive) | 83.4 µM (inactive)

Reference: ChEMBL document CHEMBL1201862, “PubChem BioAssay data set” (2004)
